{"source": "patent US20240108601A1", "about": "“TREATMENT OF MENTAL DISORDERS” (GH Research Ireland Limited, priority 2022, published 2024)", "key": {"[1]": {"test": "Pharmacokinetics of 5-MeO-DMT and bufotenine after single inhaled dose", "assay_type": "in vivo, human", "settings": "for Cmax: human, plasma, inhaled or intranasal, inhalation, n=8, read-out: Median Cmax", "procedure": "Blood samples were obtained at 1; 2; 4; 7; 10; 15; 20; 30; 45 min and 1; 1.5; 2; 3; 4 hours after administration.\nPK parameters were generated by algebraic analysis of the concentration versus time plots for each individual. The analysis was carried out using the software Phoenix WinNonlin 6.3."}, "[2]": {"test": "In vitro binding of 5-MeO-DMT to plasma proteins, high throughput dialysis", "assay_type": "in vitro ADME", "procedure": "Following evaluation of the equilibration data, plasma protein binding was investigated at nominal concentrations of 0.1, 1 and 10 μM using a 4-hour dialysis time. […]"}, "[3]": {"tested_on": "patients with postpartum depression (PPD)", "test": "Clinical trial of inhaled 5-MeO-DMT in postpartum depression", "assay_type": "in vivo, human", "settings": "for BIMF domain Adjustment score / BIMF domain Infant Care score: max 12; for BIMF domain Infant Care score: Day 0 12; for BIMF domain Management score: max 36; for BIMF domain Psychological Well-being score: max 60; for BIMF TOTAL score: possible total 120; for Time to clinical remission after administration: IDR 6 mg then 12 mg", "excerpt": "The patient completed all planned visit days."}, "[4]": {"settings": "second patient, Day 7 (visit on day 5)"}}, "note": "Where “and” joins values, the source holds several entries; their conditions need not be identical. Equal values may be shown once. Read-outs that look alike come from different tables or passages of the source.", "data": [{"smiles": "COc1ccc2[nH]cc(CCN(C)C)c2c1", "note": "[5-MeO-DMT]", "values": [{"measurement": "Detectability in plasma", "setting": "[1]; 3 hours after inhalation, 6, 12, 18 mg", "result": "no longer detectable"}, {"measurement": "Cmax", "setting": "[1]; 6 mg group", "result": 11.8, "unit": "ng/mL"}, {"measurement": "Cmax", "setting": "[1]; 12 mg group", "result": 22.9, "unit": "ng/mL"}, {"measurement": "Cmax", "setting": "[1]; 18 mg group", "result": 38.5, "unit": "ng/mL"}, {"measurement": "Accumulation upon repeated administration", "setting": "[1]; repeated administration within 1 to 4 hours", "result": "No accumulation"}, {"measurement": "fraction unbound at 4 h", "setting": "[2]; human plasma", "result": "0.77 to 0.87"}, {"measurement": "fraction unbound at 4 h, 0.1 μM", "setting": "[2]; human, 0.1 μM, 4-hour dialysis, read-out: Free Fraction in human plasma", "result": 0.787}, {"measurement": "fraction unbound at 4 h, 1 μM", "setting": "[2]; human, 1 μM, 4-hour dialysis, read-out: Free Fraction in human plasma", "result": 0.773}, {"measurement": "fraction unbound at 4 h, 10 μM", "setting": "[2]; human, 10 μM, 4-hour dialysis, read-out: Free Fraction in human plasma", "result": 0.87}, {"measurement": "BIMF TOTAL Δ (Day 7)", "setting": "[3]; first patient", "result": 13}, {"measurement": "BIMF domain Adjustment Δ (Day 7)", "setting": "[3]; first patient", "result": 1}, {"measurement": "BIMF domain Infant Care Δ (Day 7)", "setting": "[3]; first patient", "result": 0}, {"measurement": "BIMF domain Management Δ (Day 7)", "setting": "[3]; first patient", "result": 5}, {"measurement": "BIMF domain Mother-Child Interaction Δ (Day 7)", "setting": "[3]; first patient", "result": 2}, {"measurement": "BIMF domain Psychological Well-being Δ (Day 7)", "setting": "[3]; first patient", "result": 9}, {"measurement": "BIMF domain Self-Care Δ (Day 7)", "setting": "[3]; first patient", "result": 4}, {"measurement": "BIMF domain Social Support Δ (Day 7)", "setting": "[3]; first patient", "result": 1}, {"measurement": "PES score", "setting": "[3]; first patient, 12 mg", "result": 85.7}, {"measurement": "Total MADRS improvement", "setting": "[3]; first patient, 2 hr", "result": 24}, {"measurement": "Total MADRS score", "setting": "[3]; first patient, 2 hr, baseline 29", "result": 5}, {"measurement": "BPRS item score", "setting": "[3]; first patient, Day 1", "result": 1}, {"measurement": "MADRS item score", "setting": "[3]; first patient, Day 1", "result": 0}, {"measurement": "Total MADRS improvement", "setting": "[3]; first patient, Day 1", "result": 29}, {"measurement": "Total MADRS score", "setting": "[3]; first patient, Day 1, baseline 29", "result": 0}, {"measurement": "BIMF domain Adjustment % improvement", "setting": "[3]; first patient, Day 7", "result": 20.00, "unit": "%"}, {"measurement": "BIMF domain Infant Care % improvement", "setting": "[3]; first patient, Day 7", "result": 0.00, "unit": "%"}, {"measurement": "BIMF domain Management % improvement", "setting": "[3]; first patient, Day 7", "result": "18% and 17.86%"}, {"measurement": "BIMF domain Mother-Child Interaction % improvement", "setting": "[3]; first patient, Day 7", "result": 13.33, "unit": "%"}, {"measurement": "BIMF domain Psychological Well-being % improvement", "setting": "[3]; first patient, Day 7", "result": 20.45, "unit": "%"}, {"measurement": "BIMF domain Self-Care % improvement", "setting": "[3]; first patient, Day 7", "result": "44% and 44.44%"}, {"measurement": "BIMF domain Social Support % improvement", "setting": "[3]; first patient, Day 7", "result": 5.88, "unit": "%"}, {"measurement": "BIMF total score improvement", "setting": "[3]; first patient, Day 7", "result": 14, "unit": "%"}, {"measurement": "BPRS item score", "setting": "[3]; first patient, Day 7", "result": 1}, {"measurement": "Total MADRS improvement", "setting": "[3]; first patient, Day 7", "result": 28}, {"measurement": "BIMF domain Adjustment score", "setting": "[3]; first patient, Day 7, Day 0 5", "result": 6}, {"measurement": "BIMF domain Self-Care score", "setting": "[3]; first patient, Day 7, Day 0 9, max 18", "result": 13}, {"measurement": "BIMF domain Infant Care score", "setting": "[3]; first patient, Day 7", "result": 12}, {"measurement": "BIMF domain Mother-Child Interaction score", "setting": "[3]; first patient, Day 7, Day 0 15, max 18", "result": 17}, {"measurement": "BIMF domain Social Support score", "setting": "[3]; first patient, Day 7, Day 0 17, max 18", "result": 18}, {"measurement": "BIMF domain Management score", "setting": "[3]; first patient, Day 7, Day 0 28", "result": 33}, {"measurement": "BIMF domain Psychological Well-being score", "setting": "[3]; first patient, Day 7, Day 0 44", "result": 53}, {"measurement": "BIMF TOTAL score", "setting": "[3]; first patient, Day 7, Day 0 92", "result": 105}, {"measurement": "Total MADRS score", "setting": "[3]; first patient, Day 7, baseline 29", "result": 1}, {"measurement": "BPRS item score", "setting": "[3]; first patient, Discharge", "result": 1}, {"measurement": "Time to clinical remission after administration", "setting": "[3]; first patient", "result": "≤ 2", "unit": "h"}, {"measurement": "Reported adverse events", "setting": "[3]; first patient, cramping left abdominal pain and headache, Day 0", "result": "mild, short-lasting and resolved spontaneously"}, {"measurement": "PES score", "setting": "[3]; first patient, nominal dose 6 mg", "result": 17.3}, {"measurement": "BIMF TOTAL Δ (Day 7)", "setting": "[3]; second patient", "result": 45}, {"measurement": "BIMF domain Adjustment Δ (Day 7)", "setting": "[3]; second patient", "result": 9}, {"measurement": "BIMF domain Infant Care Δ (Day 7)", "setting": "[3]; second patient", "result": 0}, {"measurement": "BIMF domain Management Δ (Day 7)", "setting": "[3]; second patient", "result": 13}, {"measurement": "BIMF domain Mother-Child Interaction Δ (Day 7)", "setting": "[3]; second patient", "result": 7}, {"measurement": "BIMF domain Psychological Well-being Δ (Day 7)", "setting": "[3]; second patient", "result": 27}, {"measurement": "BIMF domain Self Care Δ (Day 7)", "setting": "[3]; second patient", "result": 10}, {"measurement": "BIMF domain Social Support Δ (Day 7)", "setting": "[3]; second patient", "result": 3}, {"measurement": "PES score", "setting": "[3]; second patient, 12 mg", "result": 94.7}, {"measurement": "Total MADRS score", "setting": "[3]; second patient, 2 hr, baseline 41", "result": 5}, {"measurement": "Total MADRS improvement", "setting": "[3]; second patient, 2 hrs", "result": 36}, {"measurement": "BPRS item score", "setting": "[3]; second patient, Day 1", "result": 1}, {"measurement": "MADRS item score", "setting": "[3]; second patient, Day 1", "result": 0}, {"measurement": "Total MADRS improvement", "setting": "[3]; second patient, Day 1", "result": 41}, {"measurement": "Total MADRS score", "setting": "[3]; second patient, Day 1, baseline 41", "result": 0}, {"measurement": "BIMF domain Adjustment % improvement", "setting": "[3]; second patient, Day 7", "result": 450, "unit": "%"}, {"measurement": "BIMF domain Infant Care % improvement", "setting": "[3]; second patient, Day 7", "result": 0, "unit": "%"}, {"measurement": "BIMF domain Management % improvement", "setting": "[3]; second patient, Day 7", "result": 76, "unit": "%"}, {"measurement": "BIMF domain Mother-Child Interaction % improvement", "setting": "[3]; second patient, Day 7", "result": 70, "unit": "%"}, {"measurement": "BIMF domain Psychological Well-being % improvement", "setting": "[3]; second patient, Day 7", "result": 113, "unit": "%"}, {"measurement": "BIMF domain Self Care % improvement", "setting": "[3]; second patient, Day 7", "result": 333, "unit": "%"}, {"measurement": "BIMF item score", "setting": "[3]; second patient, Day 7", "result": "6 and 5 and 4"}, {"measurement": "BIMF total score improvement", "setting": "[3]; second patient, Day 7", "result": "over 40%"}, {"measurement": "BPRS item score", "setting": "[3]; [4]", "result": 1}, {"measurement": "MADRS item score", "setting": "[3]; [4]", "result": 0}, {"measurement": "Total MADRS improvement", "setting": "[3]; [4]", "result": 41}, {"measurement": "Total MADRS score", "setting": "[3]; second patient, Day 7 (visit on day 5), baseline 41", "result": 0}, {"measurement": "BIMF domain Adjustment score", "setting": "[3]; second patient, Day 7, Day 0 2", "result": 11}, {"measurement": "BIMF domain Self Care score", "setting": "[3]; second patient, Day 7, Day 0 3, max 18", "result": 13}, {"measurement": "BIMF domain Mother-Child Interaction score", "setting": "[3]; second patient, Day 7, Day 0 10, max 18", "result": 17}, {"measurement": "BIMF domain Social Support score", "setting": "[3]; second patient, Day 7, Day 0 11, max 18", "result": 14}, {"measurement": "BIMF domain Infant Care score", "setting": "[3]; second patient, Day 7", "result": 12}, {"measurement": "BIMF domain Management score", "setting": "[3]; second patient, Day 7, Day 0 17", "result": 30}, {"measurement": "BIMF domain Psychological Well-being score", "setting": "[3]; second patient, Day 7, Day 0 24", "result": 51}, {"measurement": "BIMF TOTAL score", "setting": "[3]; second patient, Day 7, Day 0 59 (table)", "result": 104}, {"measurement": "BPRS item score", "setting": "[3]; second patient, Discharge", "result": 1}, {"measurement": "Time to clinical remission after administration", "setting": "[3]; second patient", "result": "≤ 2", "unit": "h"}, {"measurement": "PES score", "setting": "[3]; second patient, nominal dose 6 mg", "result": 1}, {"measurement": "Reported adverse events", "setting": "[3]; second patient, vomiting Day 0, headache Day 5", "result": "mild, short-lasting and resolved spontaneously"}]}]}
